In PubChem BioAssay (NCI):
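Assay format: 96-well plates, 48-hour exposure. Here, GI50 denotes the concentration required for 50% inhibition of growth. Definition used: TGI = concentration required for complete inhibition of growth.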

How the values were obtained:
Test in all cases: DTP human tumour cell line panel, 48 h
[1] = tested on: SNB-75 CNS
[2] = tested on: KM12 colon
[3] = tested on: NCI-H226 lung
[4] = tested on: NCI-H23 lung
[5] = tested on: HCT-116 colon
[6] = tested on: SW-620 colon
[7] = tested on: SN12C renal
[8] = tested on: HCC-2998 colon
[9] = tested on: OVCAR-5 ovarian
[10] = tested on: DU-145 prostate

Compound | TGI [1] [µM] | TGI [2] [µM] | TGI [3] [µM] | TGI [4] [µM] | TGI [5] [µM] | TGI [6] [µM] | TGI [7] [µM] | TGI [8] [µM] | TGI [9] [µM] | GI50 [1] [µM] | GI50 [2] [µM] | GI50 [3] [µM] | GI50 [4] [µM] | GI50 [10] [µM] | TGI [10] [µM] | GI50 [5] [µM] | GI50 [6] [µM] | GI50 [7] [µM] | GI50 [8] [µM] | GI50 [9] [µM]
CCOC(=O)C1(C(=O)OCC)CC=C(C)CC12C(=O)Nc1ccccc12 (stereo unspecified) | > 100 | > 100 | > 100 | > 100 | > 100 | > 100 | > 100 | > 100 | > 100 | – | – | – | – | – | – | – | – | – | – | –
COc1cc(/C=C/C(=O)c2cc(OC)c(OC)c(OC)c2)cc(OC)c1OC | 9.41 | 4.84 | 87.4 | 13.7 | 8.74 | 5.67 | 20.8 | 6.65 | 20.1 | 2.31 | 1.98 | 6.36 | 3.15 | 2.03 | 5.95 | 2.3 | 2.18 | 4.02 | 2.95 | 5.68
CC(C)(C)n1cc(-c2ccnc(NCCNS(=O)(=O)c3cccc4ccccc34)c2)c(-c2cccc(F)c2)n1 | – | 55.8 | 43.4 | 59.1 | 19.2 | 42.3 | 29 | 37.9 | 69.9 | – | 17.9 | 12.2 | 14.9 | 26.7 | > 100 | 4.62 | 16.6 | 13.7 | 13.2 | 23.7
C[C@@]12CCC[C@@](C)(C(=O)O)C1CC[C@@]13CC(=O)[C@@](CO)(CCC12)C3 (stereo partly specified) | > 100 | > 100 | > 100 | > 100 | > 100 | > 100 | > 100 | > 100 | > 100 | > 100 | > 100 | > 100 | > 100 | > 100 | > 100 | > 100 | > 100 | > 100 | > 100 | > 100
Cn1cnc([N+](=O)[O-])c1Sc1nnc(C(F)(F)F)n1C | > 100 | > 100 | > 100 | > 100 | 32.5 | 43.3 | > 100 | > 100 | > 100 | – | – | – | – | – | – | – | – | – | – | –
CN1CCN(c2cc(Nc3cc(C4CC4)[nH]n3)nc(Nc3ccc(CC(=O)NCc4cccc(F)c4)cc3)n2)CC1 | 0.778 | 12.1 | 10.9 | 9.74 | 6.87 | 2.72 | 14.4 | 12.1 | 15.8 | 0.168 | 0.0671 | 0.534 | 1.05 | 2.03 | 11.5 | 0.211 | 0.12 | 0.756 | 1.15 | 0.432
COP1(=S)OCC2CCC[C@@H]2O1 (stereo partly specified) | > 100 | > 100 | > 100 | > 100 | > 100 | > 100 | > 100 | > 100 | > 100 | – | – | – | – | – | > 100 | – | – | – | – | –
